Source: ChEMBL document CHEMBL3044724, “Differential efficacy of three commonly used pyrethroids against laboratory and field-collected larvae and adults of Helicoverpa zea (Lepidoptera: Noctuidae) and significance for pyrethroid resistance management” (2010)

What follows are compounds tested on Helicoverpa zea (assay: Insecticidal activity against F1 generation of adult of Helicoverpa zea (corn earworm) assessed as mortality per insecticide vial after 24 hr).
Type: functional
Compound `CC(C)[C@H](C(=O)O[C@H](C#N)c1cccc(Oc2ccccc2)c1)c1ccc(Cl)cc1` has an LC50 of 2.3 µg and an LC90 of 5.9 µg.
With `CC1(C)C(C=C(Cl)Cl)C1C(=O)OC(C#N)c1cccc(Oc2ccccc2)c1` (stereo not drawn) [ALPHA-CYPERMETHRIN] the LC50 was 2.89 µg and the LC90 was 7.12 µg.
`Cc1c(COC(=O)[C@@H]2[C@H](/C=C(\Cl)C(F)(F)F)C2(C)C)cccc1-c1ccccc1` [BIFENTHRIN] showed an LC50 of 1.54 µg and an LC90 of 3.01 µg.

These compounds were tested on Helicoverpa zea (assay: Resistant ratio, ratio of LC90 for F1 generation of third-instar of Helicoverpa zea (corn earworm) to LC90 for third-instar of corn earworm).
Type: functional
In the case of `CC(C)[C@H](C(=O)O[C@H](C#N)c1cccc(Oc2ccccc2)c1)c1ccc(Cl)cc1`, the Ratio was 3.17.
`CC1(C)C(C=C(Cl)Cl)C1C(=O)OC(C#N)c1cccc(Oc2ccccc2)c1` (stereo not drawn) [ALPHA-CYPERMETHRIN] was tested, and the Ratio was 6.28.
Work on `Cc1c(COC(=O)[C@@H]2[C@H](/C=C(\Cl)C(F)(F)F)C2(C)C)cccc1-c1ccccc1` [BIFENTHRIN] yielded a Ratio of 15.22.

The compounds below were run on Helicoverpa zea (assay: Resistant ratio, ratio of LC50 for F1 generation of third-instar of Helicoverpa zea (corn earworm) to LC50 for third-instar of corn earworm).
Type: functional
`CC(C)[C@H](C(=O)O[C@H](C#N)c1cccc(Oc2ccccc2)c1)c1ccc(Cl)cc1` was tested, and the RatioLC50 was 3.75.
For `CC1(C)C(C=C(Cl)Cl)C1C(=O)OC(C#N)c1cccc(Oc2ccccc2)c1` (stereo not drawn) [ALPHA-CYPERMETHRIN], the RatioLC50 was 4.68.
Compound `Cc1c(COC(=O)[C@@H]2[C@H](/C=C(\Cl)C(F)(F)F)C2(C)C)cccc1-c1ccccc1` [BIFENTHRIN] has a RatioLC50 of 9.41.

These compounds were tested on Helicoverpa zea (assay: Insecticidal activity against adult of Helicoverpa zea (corn earworm) assessed as mortality per insecticide vial after 24 hr).
Type: functional
For `CC(C)[C@H](C(=O)O[C@H](C#N)c1cccc(Oc2ccccc2)c1)c1ccc(Cl)cc1`, the LC50 was 0.49 µg and the LC90 was 1.35 µg.
`CC1(C)C(C=C(Cl)Cl)C1C(=O)OC(C#N)c1cccc(Oc2ccccc2)c1` (stereo not drawn) [ALPHA-CYPERMETHRIN] showed an LC50 of 0.7 µg and an LC90 of 1.86 µg.
Compound `Cc1c(COC(=O)[C@@H]2[C@H](/C=C(\Cl)C(F)(F)F)C2(C)C)cccc1-c1ccccc1` [BIFENTHRIN] has an LC50 of 0.17 µg and an LC90 of 0.51 µg.

The compounds below were run on Helicoverpa zea (assay: Insecticidal activity against F1 generation of third-instar of Helicoverpa zea (corn earworm) assessed as mortality per insecticide vial after 48 hr).
Type: functional
With `CC(C)[C@H](C(=O)O[C@H](C#N)c1cccc(Oc2ccccc2)c1)c1ccc(Cl)cc1` the LC50 was 1.51 µg and the LC90 was 4.59 µg.
`CC1(C)C(C=C(Cl)Cl)C1C(=O)OC(C#N)c1cccc(Oc2ccccc2)c1` (stereo not drawn) [ALPHA-CYPERMETHRIN] gave an LC50 of 1.71 µg and an LC90 of 7.68 µg.
For `Cc1c(COC(=O)[C@@H]2[C@H](/C=C(\Cl)C(F)(F)F)C2(C)C)cccc1-c1ccccc1` [BIFENTHRIN], the LC50 was 1.25 µg and the LC90 was 5.8 µg.

What follows are compounds tested on Helicoverpa zea (assay: Resistant ratio, ratio of LC50 for F1 generation of adult of Helicoverpa zea (corn earworm) to LC50 for adult of corn earworm).
Type: functional
`CC(C)[C@H](C(=O)O[C@H](C#N)c1cccc(Oc2ccccc2)c1)c1ccc(Cl)cc1` showed a RatioLC50 of 4.67.
`CC1(C)C(C=C(Cl)Cl)C1C(=O)OC(C#N)c1cccc(Oc2ccccc2)c1` (stereo not drawn) [ALPHA-CYPERMETHRIN] gave a RatioLC50 of 4.16.
`Cc1c(COC(=O)[C@@H]2[C@H](/C=C(\Cl)C(F)(F)F)C2(C)C)cccc1-c1ccccc1` [BIFENTHRIN] was tested, and the RatioLC50 was 9.28.

These compounds were tested on Helicoverpa zea (assay: Insecticidal activity against third-instar of Helicoverpa zea (corn earworm) assessed as mortality per insecticide vial after 48 hr).
Type: functional
In the case of `CC(C)[C@H](C(=O)O[C@H](C#N)c1cccc(Oc2ccccc2)c1)c1ccc(Cl)cc1`, the LC50 was 0.4 µg and the LC90 was 1.45 µg.
`CC1(C)C(C=C(Cl)Cl)C1C(=O)OC(C#N)c1cccc(Oc2ccccc2)c1` (stereo not drawn) [ALPHA-CYPERMETHRIN] was tested, and the LC50 was 0.37 µg and the LC90 was 1.22 µg.
With `Cc1c(COC(=O)[C@@H]2[C@H](/C=C(\Cl)C(F)(F)F)C2(C)C)cccc1-c1ccccc1` [BIFENTHRIN] the LC50 was 0.13 µg and the LC90 was 0.38 µg.

Each compound was assayed on Helicoverpa zea (assay: Resistant ratio, ratio of LC90 for F1 generation of adult of Helicoverpa zea (corn earworm) to LC90 for adult of corn earworm).
Type: functional
Compound `CC(C)[C@H](C(=O)O[C@H](C#N)c1cccc(Oc2ccccc2)c1)c1ccc(Cl)cc1` has a Ratio of 4.37.
Compound `CC1(C)C(C=C(Cl)Cl)C1C(=O)OC(C#N)c1cccc(Oc2ccccc2)c1` (stereo not drawn) [ALPHA-CYPERMETHRIN] has a Ratio of 3.82.
`Cc1c(COC(=O)[C@@H]2[C@H](/C=C(\Cl)C(F)(F)F)C2(C)C)cccc1-c1ccccc1` [BIFENTHRIN] showed a Ratio of 5.9.
